{"source": "patent US20100317850A1", "about": "(priority 2008, published 2010)"}
{"tested_on": "Aβ42 production", "assay": "Quantification of Aβ peptide in culture of neurons from rat fetus brain (Aβ ELISA)", "type": "cell-based", "details": "Neuron, 72 h; rat primary neuronal culture (cerebral cortex, embryonic day 18 Wistar rats); medium collected three days after addition of the compound; Aβx-42 ELISA; read-out: Aβ42 production reducing effect IC50", "method": "Quantification of Aβ Peptide in Culture of Neurons from Rat Fetus Brain\n(1) Rat Primary Neuronal Culture\nPrimary neuronal cultures were prepared from the cerebral cortex of embryonic day 18 Wistar rats (Charles River Japan, Yokohama, Japan). Specifically, the embryos were aseptically removed from pregnant rats under ether anesthesia. The brain was isolated from the embryo and immersed in an ice-cold L-15 medium (such as Invitrogen Corp. Cat #11415-064, Carlsbad, Calif., USA, or SIGMA L1518). The cerebral cortex was collected from the isolated brain under a stereoscopic microscope. The cerebral cortex fragments collected were enzymatically treated in an enzyme solution containing 0.25% trypsin (Invitrogen Corp. Cat #15050-065, Carlsbad, Calif., USA) and 0.01% DNase (Sigma D5025, St. Louis, Mo., USA) at 37° C. for 30 minutes to disperse the cells. Here, the enzymatic reaction was stopped by adding inactivated horse serum to the solution. The enzymatically treated solution was centrifuged at 1,500 rpm for five minutes to remove the supernatant. 5 to 10 mL of a medium was added to the resulting cell mass. Neurobasal medium (Invitrogen Corp. Cat #21103-049, Carlsbad, Calif., USA) supplemented with 2% B27 supplement (Invitrogen Corp. Cat #17504-044, Carlsbad, Calif., USA), 25 μM 2-mercaptoethanol (2-ME, WAKO Cat #139-06861, Osaka, Japan), 0.5 mM L-glutamine (Invitrogen Corp. Cat #25030-081, Carlsbad, Calif., USA), and Antibiotics-Antimycotics (Invitrogen Corp. Cat #15240-062, Carlsbad, Calif., USA) was used as the medium (Neurobasal/B27/2-ME). However, the above Neurobasal medium not supplemented with 2-ME (Neurobasal/B27) was used for the assay. The cells were redispersed by mild pipetting of the cell mass to which the medium was added. The cell dispersion was filtered through a 40-μm nylon mesh (Cell Strainer, Cat #35-2340, Becton Dickinson Labware, Franklin Lakes, N.J., USA) to remove the remaining cell mass, and thus a neuronal cell suspension was obtained. The neuronal cell suspension was diluted with the medium and then plated in a volume of 100 μL/well at an initial cell density of 5×10^5 cells/cm^2 in a 96-well polystyrene culture plate pre-coated with poly-L or D-lysine (Falcon Cat #35-3075, Becton Dickinson Labware, Franklin Lakes, N.J., USA coated with poly-L-lysine using the method shown below, or BIOCOAT™ cell environments Poly-D-lysine cell ware 96-well plate, Cat #35-6461, Becton Dickinson Labware, Franklin Lakes, N.J., USA). Poly-L-lysine coating was carried out as follows. 100 μg/mL of a poly-L-lysine (SIGMA P2636, St. Louis, Mo., USA) solution was aseptically prepared with a 0.15 M borate buffer (pH 8.5). […] of the solution was added to the 96-well polystyrene culture plate and incubated at room temperature for one or more hours or at 4° C. overnight or longer. Thereafter, the coated 96-well polystyrene culture plate was washed with sterile water four or more times, and then dried or rinsed with, for example, sterile PBS or medium, and used for cell plating. The plated cells were cultured in the culture plate at 37° C. in 5% CO2-95% air for one day. Then, the total amount of the medium was replaced with a fresh Neurobasal™/B27/2-ME medium, and then the cells were cultured for further three days.\nThe drug was added to the culture plate on Day 4 of culture as follows. The total amount of the medium was removed from the wells, and 180 μL/well of Neurobasal medium not containing 2-ME and containing 2% B-27 (Neurobasal/B27) was added thereto. A solution of the test compound in dimethyl sulfoxide (hereinafter abbreviated as DMSO) was diluted with Neurobasal/B27 to a concentration 10-fold higher than the final concentration. 20 μL/well of the dilution was added to and sufficiently mixed with the medium. The final DMSO concentration was 1% or less. Only DMSO was added to the control group.\nThe cells were cultured for three days after addition of the compound, and the total amount of the medium was collected. […]", "units": {"IC50": "nM"}}
{"molecule": "N#Cc1ccc(C(=O)Nc2ccc(F)c([C@]34CCO[C@H](CF)[C@H]3CSC(N)=N4)c2)nc1", "note": "(relative stereo) [Example 143, N-[3-((4aS*,5S*,8aS*)-2-amino-5-fluoromethyl-4a,5,7,8-tetrahydro-4H-6-oxa-3-thia-1-azanaphthalen-8a-yl)-4-fluorophenyl]-5-cyanopyridine-2-carboxamide]", "IC50": 16}
{"molecule": "NC1=N[C@@]2(c3cc(NC(=O)c4ccc(C(F)(F)F)cn4)ccc3F)CCCCC[C@H]2CS1", "note": "(single isomer, unassigned) [Example 250, N-[3-((4aR*,9aS*)-2-amino-4a,5,6,7,8,9-hexahydro-4H-cyclohepta[d][1,3]thiazin-9a-yl)-4-fluorophenyl]-5-trifluoromethylpyridine-2-carboxamide]", "IC50": 27}
{"molecule": "COCC#Cc1ccc(C(=O)Nc2ccc(F)c([C@]34CCC[C@H]3CSC(N)=N4)c2)nc1", "note": "(single isomer, unassigned) [Example 136, N-[3-((4aR*,7aS*)-2-amino-4a,5,6,7-tetrahydro-4H-cyclopenta[d][1,3]thiazin-7a-yl)-4-fluorophenyl]-5-(3-methoxypropyn-1-yl)-pyridine-2-carboxamide]", "IC50": 25}
{"molecule": "NC1=N[C@@]2(c3cc(NC(=O)c4ccc(F)cn4)ccc3F)CCC[C@H]2CS1", "note": "(relative stereo) [Example 9, N-[3-((4aR*,7aS*)-2-amino-4a,5,6,7-tetrahydro-4H-cyclopenta[d][1,3]thiazin-7a-yl)-4-fluorophenyl]-5-fluoropyridine-2-carboxamide]", "IC50": 28}
{"molecule": "NC1=N[C@@]2(c3cc(NC(=O)c4cnc(C(F)F)cn4)ccc3F)CCO[C@H](CF)[C@H]2CS1", "note": "(relative stereo) [Example 146, N-[3-((4aS*,5S*,8aS*)-2-amino-5-fluoromethyl-4a,5,7,8-tetrahydro-4H-6-oxa-3-thia-1-azanaphthalen-8a-yl)-4-fluorophenyl]-5-difluoromethylpyrazine-2-carboxamide]", "IC50": 32}
{"molecule": "NC1=N[C@@]2(c3cc(NC(=O)c4ncc(Cl)cc4Cl)ccc3F)CCCC[C@H]2CS1", "note": "(single isomer, unassigned) [Example 257, N-[3-((4aR*,8aS*)-2-amino-4,4a,5,6,7,8-hexahydrobenzo[d][1,3]thiazin-8a-yl)-4-fluorophenyl]-3,5-dichloropyridine-2-carboxamide]", "IC50": 17}
{"molecule": "CCO[C@H]1C[C@H]2CSC(N)=N[C@@]2(c2cc(NC(=O)c3ccc(C#N)cn3)ccc2F)C1", "note": "(relative stereo) [Example 89, (+)-N-[3-((4aR*,6S*,7aS*)-2-amino-6-ethoxy-4a,5,6,7-tetrahydro-4H-cyclopenta[d][1,3]thiazin-7a-yl)-4-fluorophenyl]-5-cyanopyridine-2-carboxamide]", "IC50": 3.2}
{"molecule": "NC1=N[C@@]2(c3cc(NC(=O)c4cnc(OCC(F)F)cn4)ccc3F)CCC[C@H]2CS1", "note": "(single isomer, unassigned) [Example 181, N-[3-((4aR*,7aS*)-2-amino-4a,5,6,7-tetrahydro-4H-cyclopenta[d][1,3]thiazin-7a-yl)-4-fluorophenyl]-5-(2,2-difluoroethoxy)-pyrazine-2-carboxamide]", "IC50": 47}
{"molecule": "NC1=N[C@@]2(c3cc(NC(=O)c4cnc(C(F)F)cn4)ccc3F)CCC[C@H]2CS1", "note": "(single isomer, unassigned) [Example 191, N-[3-((4aR*,7aS*)-2-amino-4a,5,6,7-tetrahydro-4H-cyclopenta[d][1,3]thiazin-7a-yl)-4-fluorophenyl]-5-difluoromethylpyrazine-2-carboxamide]", "IC50": 9}
{"molecule": "NC1=N[C@@]2(c3cc(NC(=O)c4cnc(OCF)cn4)ccc3F)C[C@H](CF)OC[C@H]2CS1", "note": "[Example 41, N-[3-((4aS,7R,8aS)-2-amino-7-fluoromethyl-4a,5,7,8-tetrahydro-4H-6-oxa-3-thia-1-azanaphthalen-8a-yl)-4-fluorophenyl]-5-fluoromethoxypyrazine-2-carboxamide]", "IC50": 6}
{"molecule": "NC1=N[C@@]2(c3cc(NC(=O)c4ccccn4)ccc3F)CCC[C@H]2CS1", "note": "(relative stereo) [Example 6, N-[3-((4aR*,7aS*)-2-amino-4a,5,6,7-tetrahydro-4H-cyclopenta[d][1,3]thiazin-7a-yl)-4-fluorophenyl]pyridine-2-carboxamide]", "IC50": 88}
{"molecule": "NC1=N[C@@]2(c3cc(NC(=O)c4ccc(C#CC5CC5)cn4)ccc3F)CCC[C@H]2CS1", "note": "(single isomer, unassigned) [Example 132, N-[3-((4aR*,7aS*)-2-amino-4a,5,6,7-tetrahydro-4H-cyclopenta[d][1,3]thiazin-7a-yl)-4-fluorophenyl]-5-cyclopropylethynyl-pyridine-2-carboxamide]", "IC50": 44}
{"molecule": "CO[C@@H]1C[C@H]2CSC(N)=N[C@@]2(c2cc(NC(=O)c3ccc(Cl)cn3)ccc2F)C1", "note": "(relative stereo) [Example 99, (+)-N-[3-((4aR*,6R*,7aS*)-2-amino-6-methoxy-4a,5,6,7-tetrahydro-4H-cyclopenta[d][1,3]thiazin-7a-yl)-4-fluorophenyl]-5-chloropyridine-2-carboxamide]", "IC50": 1}
{"molecule": "NC1=N[C@@]2(c3cc(NC(=O)c4nc5ccccc5s4)ccc3F)CCCC[C@H]2CS1", "note": "[Example 223]", "IC50": 316}
{"molecule": "NC1=N[C@@]2(c3cc(NC(=O)c4ccc(F)cn4)ccc3F)CCOC[C@H]2CS1", "note": "(single isomer, unassigned) [Example 187, N-[3-((4aS*,8aS*)-2-amino-4a,5,7,8-tetrahydro-4H-6-oxa-3-thia-1-azanaphthalen-8a-yl)-4-fluorophenyl]-5-fluoropyridine-2-carboxamide]", "IC50": 54}
{"molecule": "NC1=N[C@@]2(c3cc(NC(=O)c4ncc(F)cc4F)ccc3F)COC[C@H]2CS1", "note": "(single isomer, unassigned) [Example 188, N-[3-((4aS*,7aS*)-2-amino-4a,5-dihydro-4H-furo[3,4-d][1,3]thiazin-7a-yl)-4-fluorophenyl]-3,5-difluoropyridine-2-carboxamide]", "IC50": 22}
{"molecule": "N#Cc1ccc(C(=O)Nc2cc(F)cc([C@]34CCC[C@H]3CSC(N)=N4)c2)nc1", "note": "(racemic) [Example 158, (±)-N-[3-((4aR*,7aS*)-2-amino-4a,5,6,7-tetrahydro-4H-cyclopenta[d][1,3]thiazin-7a-yl)-5-fluorophenyl]-5-cyanopyridine-2-carboxamide]", "IC50": 53}
{"molecule": "CO[C@H]1C[C@H]2CSC(N)=N[C@@]2(c2cc(NC(=O)c3cnc(C(F)F)cn3)ccc2F)C1", "note": "(relative stereo) [Example 92, (+)-N-[3-((4aR*,6S*,7aS*)-2-amino-6-methoxy-4a,5,6,7-tetrahydro-4H-cyclopenta[d][1,3]thiazin-7a-yl)-4-fluorophenyl]-5-difluoromethylpyrazine-2-carboxamide]", "IC50": 5}
{"molecule": "NC1=N[C@@]2(c3cc(NC(=O)c4ncccc4Br)ccc3F)CCCC[C@H]2CS1", "note": "[Example 260]", "IC50": 170}
{"molecule": "N#Cc1ccc(C(=O)Nc2ccc(F)c([C@]34CC(F)(F)C[C@H]3CSC(N)=N4)c2)nc1", "note": "(relative stereo) [Example 94, (+)-N-[3-((4aR*,7aS*)-2-amino-6,6-difluoro-4a,5,6,7-tetrahydro-4H-cyclopenta[d][1,3]thiazin-7a-yl)-4-fluorophenyl]-5-cyanopyridine-2-carboxamide]", "IC50": 2}
